# Laboratory results published in patent US6576430B1, “Detection of ligands by refractive surface methods” (Becton, Dickinson and Company, priority 2000, dated 2003).
# Assays:
# [1] = molecular target: T1, MBP (Escherichia coli, UniProt P0AEX9); assay: SPR (BIACORE) detection of maltose binding to immobilized MBP
# T1 construct: made in house
# Method: MBP was prepared from osmotic shock lysates and coupled to a CM5 (carboxymethyl dextran) chip (BIACORE) using standard EDC/NHS procedures performed with reagents from the BIACORE EDC/NHS coupling kit. MBP was 10 μM at pH 4.5 in 10 mM NaOAc. Hepes Buffered Saline-EP (HBS-EP: 0.01 M HEPES pH 7.4, 0.15 M NaCl, 3 mM EDTA, 0.005% surfactant P20; BIACORE™ AB) was used as an eluent (O'Shannessy et al., 1992) supplemented with 5 mM CaCl2. Ethanolamine (1.0 M, pH 8.0) was used to quench unreacted esters and was also found to be effective at removing non-covalently adsorbed protein from the chip surface. […] Report points were collected at 100 seconds post injection. Report points from injections over a blank surface were subtracted. Data points were discarded for data collected during obvious anomalies, such as air bubbles. Running buffer was HBS-EPA (BIACORE) supplemented with 5 mM CaCl2.
# After regeneration the surface was allowed to stabilize for 300 seconds before additional ligand injections.
# [2] = molecular target: T2, Tissue transglutaminase (tTG) (Cavia cutleri, UniProt P08587); assay: SPR (BIACORE) detection of calcium binding to immobilized tissue transglutaminase
# T2 construct: purchased Sigma
# T2 sequence (P08587 1-690): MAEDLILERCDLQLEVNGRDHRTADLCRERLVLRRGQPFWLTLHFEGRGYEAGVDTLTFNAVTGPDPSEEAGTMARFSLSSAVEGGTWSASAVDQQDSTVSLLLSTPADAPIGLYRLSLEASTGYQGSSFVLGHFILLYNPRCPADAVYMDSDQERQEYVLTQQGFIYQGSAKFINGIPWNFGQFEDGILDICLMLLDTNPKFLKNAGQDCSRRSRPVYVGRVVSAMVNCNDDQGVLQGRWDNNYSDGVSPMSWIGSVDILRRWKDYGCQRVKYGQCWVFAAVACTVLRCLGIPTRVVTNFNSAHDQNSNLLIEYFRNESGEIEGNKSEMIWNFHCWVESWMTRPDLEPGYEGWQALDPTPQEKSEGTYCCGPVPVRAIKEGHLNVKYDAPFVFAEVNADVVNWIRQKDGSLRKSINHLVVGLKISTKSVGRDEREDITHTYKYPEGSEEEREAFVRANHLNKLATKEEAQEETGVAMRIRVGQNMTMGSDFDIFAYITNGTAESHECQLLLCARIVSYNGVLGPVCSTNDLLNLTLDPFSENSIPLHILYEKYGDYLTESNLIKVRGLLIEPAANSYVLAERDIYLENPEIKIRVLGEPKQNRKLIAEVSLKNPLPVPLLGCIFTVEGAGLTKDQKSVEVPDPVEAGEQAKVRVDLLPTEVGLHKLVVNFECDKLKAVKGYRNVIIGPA
# Method: Tissue transglutaminase (tTG) was obtained from Sigma and prepared at 1.3 mg/mL at pH 4.5 in 10 mM NaOAc. A surface bearing 2500 RU of tTG was prepared using standard EDC/NHS coupling chemistry and was used for all experiments. Ethanolamine (1.0 M, pH 8.0) was used to quench unreacted esters. Calcium chloride was prepared in dH2O at the desired concentrations. Injections were 20 μL at a flow rate of 10 μL/min (2 minute contact time). Report points were collected at 100 seconds post injection. Report points from injections over a blank surface were subtracted. Typical injections over the blank control surface gave minimal (<5 RU) signals, but were subtracted nonetheless. Injections were randomized relative to concentration. Data points were discarded for data collected during obvious anomalies, such as air bubbles. Running buffer was HBS-EP (BIACORE) without calcium supplementation. Calcium was removed from transglutaminase by injection of 5 mM EDTA pH 8.0. After EDTA injection the surface was allowed to stabilize for 300 seconds before additional calcium injections.
# [3] = molecular target: T3, Bovine brain calmodulin (CaM) (Bos taurus, UniProt P62157); assay: SPR (BIACORE) detection of calcium binding to immobilized calmodulin
# T3 construct: Bovine brain calmodulin (CaM) was obtained from Calbiochem; purchased Calbiochem; host or cells: bovine brain
# Method: Bovine brain calmodulin (CaM) was obtained from Calbiochem and immobilized onto carboxymethyl dextran gold surfaces using standard BIACORE EDC/NHS coupling chemistry. HBS-EP was used as an eluent. CaM was injected at 0.5 mg/mL in 10 mM sodium acetate, pH 4.0 (54 minute injection). This procedure immobilized approximately 480 RU of calmodulin. During the immobilizations, the flow rate was 5 μL/min. For some experiments, the BIACORE™ 3000 was used. For others, a BIACORE™ Upgrade was used. In general, injections were run at a flow rate of 5 or 10 μL/min, in HBP-EP buffer. Varying concentrations of CaCl2 in HBS-EP (3.5-50 mM) were injected on the CaM and blank surfaces.
# [4] = molecular target: T4, tTG (Homo sapiens, UniProt P21980); settings: reported value; read-out: reported Kd of calcium for the protein; cited from earlier work
# T4 sequence (P21980 1-687): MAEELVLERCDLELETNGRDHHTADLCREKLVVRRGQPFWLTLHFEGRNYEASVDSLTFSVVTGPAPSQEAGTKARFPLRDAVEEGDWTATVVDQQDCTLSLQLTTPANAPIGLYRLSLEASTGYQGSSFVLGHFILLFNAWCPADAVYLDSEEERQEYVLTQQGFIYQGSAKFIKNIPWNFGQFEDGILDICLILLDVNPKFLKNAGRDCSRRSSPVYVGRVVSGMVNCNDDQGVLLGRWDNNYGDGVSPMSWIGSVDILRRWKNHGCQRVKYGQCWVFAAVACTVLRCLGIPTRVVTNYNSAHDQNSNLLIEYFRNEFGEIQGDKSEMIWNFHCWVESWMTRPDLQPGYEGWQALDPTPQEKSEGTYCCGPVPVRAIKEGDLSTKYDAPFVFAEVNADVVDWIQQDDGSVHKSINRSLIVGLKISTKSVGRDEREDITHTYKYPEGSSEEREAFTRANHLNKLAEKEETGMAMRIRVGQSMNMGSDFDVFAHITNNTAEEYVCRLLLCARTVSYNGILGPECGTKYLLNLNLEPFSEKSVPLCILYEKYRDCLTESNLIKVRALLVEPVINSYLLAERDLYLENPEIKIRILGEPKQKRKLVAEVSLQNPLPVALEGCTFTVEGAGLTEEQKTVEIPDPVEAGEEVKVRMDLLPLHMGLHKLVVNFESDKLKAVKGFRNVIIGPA
# [5] = molecular target: T5, Glucose/Galactose Binding Protein (GGBP) (Escherichia coli, UniProt P0AEE5); assay: SPR (BIACORE) response of saccharides injected over immobilized GGBP surface; settings: surface bearing 2000 RU of GGBP; blank subtracted
# T5 construct: made in house
# Method: Glucose/Galactose Binding Protein (GGBP) was prepared from osmotic shock lysates and coupled to the CM5 chip surface at 20 μM at pH 4.5 in 10 mM NaOAc using standard NHS/EDC procedures. Ethanolamine (1.0 M, pH 8.0) was used to quench unreacted esters and was also found to be effective at removing non-covalently adsorbed protein from the chip surface. Buffer flow was maintained overnight to remove additional non-covalently bound GGBP from the surface before ligand injections were performed. A surface bearing 2000 RU of GGBP was used for experiments. Ligands were prepared in dH2O at the desired concentrations. Injections were 20 μL at a flow rate of 10 μL/min (2 minute contact time). Report points were collected at 100 seconds post injection. Report points from injections over a blank surface were subtracted. Typical injections over the blank control surface gave minimal (<5 RU) signals, but were subtracted nonetheless. Ligand injections were repeated 3-5 times and the order of injection was reversed periodically. Data points were discarded for data collected during obvious anomolies, such as air bubbles. Remaining data was subjected to Q tests and error represents single standard deviations. A single set of sugar solutions was used for injection over the control and test surfaces. Running buffer was HBS-EP (BIACORE) supplemented with 5 mM CaCl2. Bound GGBP ligands were removed either by injection of 100 mM α-methyl mannoside in 10 mM NaOAc pH 4.5 or by 500-1000 seconds of running buffer wash.
# T5 sequence (P0AEE5 24-332 limits assumed): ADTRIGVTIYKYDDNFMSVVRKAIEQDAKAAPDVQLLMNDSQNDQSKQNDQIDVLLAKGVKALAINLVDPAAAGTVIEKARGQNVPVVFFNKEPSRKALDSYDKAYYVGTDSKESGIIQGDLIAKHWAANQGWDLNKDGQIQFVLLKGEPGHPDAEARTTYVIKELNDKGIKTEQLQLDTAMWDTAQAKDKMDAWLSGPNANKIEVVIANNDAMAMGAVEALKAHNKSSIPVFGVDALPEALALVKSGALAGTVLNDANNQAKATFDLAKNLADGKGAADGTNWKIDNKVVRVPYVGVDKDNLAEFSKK
compound,measurement,setting,value
OC[C@H]1O[C@H](O[C@H]2[C@H](O)[C@@H](O)C(O)O[C@@H]2CO)[C@H](O)[C@@H](O)[C@@H]1O (mixture of isomers) [maltose],change in RUs on injection over the MBP surface,[1],reproducible net decrease in RUs
"[Ca+2].[Cl-].[Cl-] [calcium, Calcium chloride]",change in SPR response on calcium binding to tTG,"[2]; SPR, immobilized tTG",positive change in response
same,EC50,"[2]; surface bearing 2500 RU of tTG, running buffer without calcium, read-out: half-maximal response of tTG",500 µM
same,signal over the CaM surface during injection,"[3]; 50 mM CaCl2, blank surface gave 1502 RU",1350 RU
same,change in SPR signal on CaM surface relative to blank surface,"[3]; 3.5-50 mM CaCl2 in HBS-EP, approximately 480 RU of calmodulin",reduction in signal
same,Kd,[4],~1000 µM
OC[C@H]1O[C@H](O[C@H]2[C@H](O)[C@@H](O)[C@@H](O[C@H]3[C@H](O)[C@@H](O)[C@@H](O[C@H]4[C@H](O)[C@@H](O)C(O)O[C@@H]4CO)O[C@@H]3CO)O[C@@H]2CO)[C@H](O)[C@@H](O)[C@@H]1O (stereo partly drawn) [maltotetraose],response in relative RU on injection over the GGBP surface,[5],negligible or slightly positive increase in relative RU
cyclodextrins,response in relative RU on injection over the GGBP surface,[5],negligible or slightly positive increase in relative RU
maltotriose,response in relative RU on injection over the GGBP surface,[5],negligible or slightly positive increase in relative RU
